US7342014B2, “Diamine derivatives” (Daiichi Pharmaceutical Co., Ltd., priority 2001, dated 2008)
Where a name gives a salt, the structure may show the parent alone.

What was measured:
[1] = molecular target: T1, human FXa (Homo sapiens, UniProt P00742); assay: Determination of human FXa-inhibiting effect (IC50 value); assay type: biochemical; conditions: human FXa, substrate S-2222, absorbance at 405 nm, room temperature; read-out: Human FXa-inhibiting effect (IC50)
T1 construct: purchased Enzyme Research Labolatories, Inc
Source text: Determination of Human FXa-inhibiting Effect (IC50 Value)
As a control, Tris buffer was used in place of the test compound.

T1 sequence (P00742 235-488 limits assumed): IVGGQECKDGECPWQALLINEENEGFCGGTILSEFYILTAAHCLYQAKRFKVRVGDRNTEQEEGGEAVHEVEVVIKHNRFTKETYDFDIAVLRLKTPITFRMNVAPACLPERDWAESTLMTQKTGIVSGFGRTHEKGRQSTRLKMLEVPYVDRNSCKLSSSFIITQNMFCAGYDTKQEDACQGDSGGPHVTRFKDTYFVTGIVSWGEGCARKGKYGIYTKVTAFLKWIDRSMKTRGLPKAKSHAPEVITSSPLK
T1 sequence (P00742 41-179 partner limits assumed): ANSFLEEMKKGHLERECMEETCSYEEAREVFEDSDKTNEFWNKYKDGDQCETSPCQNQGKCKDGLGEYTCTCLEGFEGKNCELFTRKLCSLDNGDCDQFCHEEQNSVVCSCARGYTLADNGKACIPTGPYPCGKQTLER

Compound | IC50 [1] | melting point
CN1CCc2nc(C(=O)N[C@@H]3C[C@@H](C(=O)N(C)C)CC[C@@H]3NC(=S)C(=O)Nc3ccc(Cl)cn3)sc2C1 [Ex. 247, N-{(1R,2S,5S)-2-({2-[(5-Chloropyridin-2-yl)amino]-2-oxoethanethioyl}amino)-5-[(dimethylamino)carbonyl]-cyclohexyl}-5-methyl-4,5,6,7-tetrahydrothiazolo[5,4-c]-pyridine-2-carboxamide] | 1.9 nM | 
COCC(=O)N1CC[C@H](NC(=O)c2cc3cc(Cl)ccc3[nH]2)[C@H](NC(=O)c2nc3c(s2)CN(C)CC3)C1 (relative stereo) [Example 143, N-[(3R*,4S*)-4-{[(5-Chloroindol-2-yl)carbonyl]amino}-1-(2-methoxyacetyl)piperidin-3-yl]-5-methyl-4,5,6,7-tetrahydro-thiazolo[5,4-c]pyridine-2-carboxamide hydrochloride] | 5.8 nM | 
CN1CCc2nc(C(=O)N[C@@H]3CN(C(=O)CC(C)(C)C)CC[C@@H]3NC(=O)c3cc4cc(Cl)ccc4[nH]3)sc2C1 (relative stereo) (as salt: hydrochloride) [Example 136, N-[(3R*,4S*)-4-{[(5-Chloroindol-2-yl)carbonyl]amino}-1-(3,3-dimethylbutanoyl)piperidin-3-yl]-5-methyl-4,5,6,7-tetrahydrothiazolo[5,4-c]pyridine-2-carboxamide hydrochloride] |  | 260 to 265 °C (dec.)
CN1CCc2nc(C(=O)N[C@@H]3CS(=O)(=O)CC[C@@H]3NC(=O)c3cc4cc(F)ccc4[nH]3)sc2C1 (relative stereo) (as salt: hydrochloride) [Example 179, N-((3R*,4R*)-4-{[(5-Fluoroindol-2-yl)carbonyl]amino}-1,1-dioxohexahydro-1-thiopyran-3-yl)-5-methyl-4,5,6,7-tetrahydrothiazolo[5,4-c]pyridine-2-carboxamide hydrochloride] |  | 243 to 245 °C
COCCOC(=O)N1CC[C@H](NC(=O)c2cc3cc(Cl)ccc3[nH]2)[C@H](NC(=O)c2nc3c(s2)CN(C)CC3)C1 (relative stereo) (as salt: hydrochloride) |  | 224 to 226 °C (dec.)
CN1CCc2nc(C(=O)N[C@@H]3CN(C(=O)C4CCC4)CC[C@@H]3NC(=O)c3cc4cc(Cl)ccc4[nH]3)sc2C1 (relative stereo) (as salt: hydrochloride) |  | 271 to 275 °C (dec.)
COCC(=O)N1CC[C@H](NC(=O)c2cc3cc(Cl)ccc3[nH]2)[C@H](NC(=O)c2nc3c(s2)CN(C)CC3)C1 (as salt: hydrochloride) [Example 171, N-[(3R,4S)-4-{[(5-Chloroindol-2-yl)carbonyl]amino}-1-(2-methoxyacetyl)piperidin-3-yl]-5-methyl-4,5,6,7-tetrahydro-thiazolo[5,4-c]pyridine-2-carboxamide hydrochloride] |  | 207 to 220 °C (dec.)
CCOC(=O)N1C[C@@H](NC(=O)c2cc3cc(Cl)ccc3[nH]2)[C@H](NC(=O)c2nc3c(s2)CN(C(C)C)CC3)C1 (as salt: hydrochloride) [Example 116, Ethyl (3R,4R)-3-{[(5-chloroindol-2-yl)carbonyl]amino}-4-{[(5-isopropyl-4,5,6,7-tetrahydrothiazolo[5,4-c]pyridin-2-yl)carbonyl]amino}pyrrolidine-1-carboxylate hydrochloride] |  | 225 to 228 °C (dec.)
CN1CCc2nc(C(=O)N[C@@H]3CN(C(=O)OC(C)(C)C)C[C@H]3NC(=O)c3cc4cc(Cl)ccc4[nH]3)sc2C1 [Example 94, tert-Butyl (3R,4R)-3-{[(5-chloroindol-2-yl)carbonyl]-amino}-4-{[(5-methyl-4,5,6,7-tetrahydrothiazolo[5,4-c]-pyridin-2-yl)carbonyl]amino}pyrrolidine-1-carboxylate] |  | 190 to 192 °C
CN1CCc2nc(C(=O)N[C@@H]3CS(=O)(=O)CC[C@H]3NC(=O)c3cc4cc(F)ccc4[nH]3)sc2C1 (relative stereo) (as salt: hydrochloride) [Example 182, N-((3R*,4S*)-4-{[(5-Fluoroindol-2-yl)carbonyl]amino}-1,1-dioxohexahydro-1-thiopyran-3-yl)-5-methyl-4,5,6,7-tetrahydrothiazolo[5,4-c]pyridine-2-carboxamide hydrochloride] |  | 236 to 241 °C
CN1CCc2nc(C(=O)N[C@@H]3CN(C(=O)C4CCOCC4)CC[C@@H]3NC(=O)c3cc4cc(Cl)ccc4[nH]3)sc2C1 (relative stereo) (as salt: hydrochloride) |  | 225 to 248 °C (dec.)
COCC(=O)N1CC[C@H](NC(=O)c2cc3cc(Cl)ccc3[nH]2)[C@H](NC(=O)c2nc3c(s2)CN(C(C)(C)CO)CC3)C1 (relative stereo) (as salt: hydrochloride) |  | 221 to 232 °C (dec.)
CN1CCc2nc(C(=O)N[C@@H]3CN(S(C)(=O)=O)CC[C@@H]3NC(=O)c3cc4cc(Cl)ccc4[nH]3)sc2C1 (relative stereo) (as salt: hydrochloride) [Example 126, N-[(3R*,4S*)-{[(5-Chloroindol-2-yl)carbonyl]amino}-1-(methylsulfonyl)piperidin-3-yl]-5-methyl-4,5,6,7-tetrahydrothiazolo[5,4-c]pyridine-2-carboxamide hydrochloride] |  | 225 to 230 °C (dec.)
CC(C)N1CCc2nc(C(=O)N[C@@H]3CN(S(C)(=O)=O)C[C@H]3NC(=O)c3cc4cc(Cl)ccc4[nH]3)sc2C1 (as salt: hydrochloride) |  | 230 to 235 °C (dec.)
CN1CCc2nc(C(=O)N[C@@H]3CS(=O)(=O)CC[C@H]3NC(=O)c3cc4cc(Cl)ccc4[nH]3)sc2C1 (relative stereo) (as salt: hydrochloride) [Example 181, N-((3R*,4S*)-4-{[(5-Chloroindol-2-yl)carbonyl]amino}-1,1-dioxohexahydro-1-thiopyran-3-yl)-5-methyl-4,5,6,7-tetrahydrothiazolo[5,4-c]pyridine-2-carboxamide hydrochloride] |  | 244 to 249 °C
CCC(=O)N1CC[C@H](NC(=O)c2cc3cc(Cl)ccc3[nH]2)[C@H](NC(=O)c2nc3c(s2)CN(C)CC3)C1 (relative stereo) (as salt: hydrochloride) [Example 133, N-((3R*,4S*)-4-{[(5-Chloroindol-2-yl)carbonyl]amino}-1-propionylpiperidin-3-yl)-5-methyl-4,5,6,7-tetrahydro-thiazolo[5,4-c]pyridine-2-carboxamide hydrochloride] |  | 214 to 228 °C (dec.)
CN1CCc2nc(C(=O)N[C@@H]3CNCC[C@@H]3NC(=O)c3cc4cc(Cl)ccc4[nH]3)sc2C1 (relative stereo) (as salt: hydrochloride) [Example 118, N-((3R*,4S*)-4-{[(5-Chloroindol-2-yl)carbonyl]amino}-piperidin-3-yl)-5-methyl-4,5,6,7-tetrahydrothiazolo[5,4-c]pyridine-2-carboxamide dihydrochloride] |  | 240 to 258 °C (dec.)
CN1CCc2nc(C(=O)N[C@@H]3CCN(S(C)(=O)=O)C[C@@H]3NC(=O)c3cc4cc(Cl)ccc4[nH]3)sc2C1 (relative stereo) (as salt: hydrochloride) |  | 228 to 245 °C (dec.)
COCC(=O)N1CC[C@H](NC(=O)c2cc3cc(F)ccc3[nH]2)[C@H](NC(=O)c2nc3c(s2)CN(C)CC3)C1 (relative stereo) (as salt: hydrochloride) |  | 190 to 208 °C (dec.)
CN1CCc2nc(C(=O)N[C@@H]3CN(C(=O)C(C)(C)O)CC[C@@H]3NC(=O)c3cc4cc(Cl)ccc4[nH]3)sc2C1 (relative stereo) [Example 149, N-[(3R*,4S*)-4-{[(5-Chloroindol-2-yl)carbonyl]amino}-1-(2-hydroxy-2-methylpropanoyl)piperidin-3-yl]-5-methyl-4,5,6,7-tetrahydrothiazolo[5,4-c]pyridine-2-carboxamide] |  | 190 °C (dec.)
CCOC(=O)N1CC[C@H](NC(=O)c2cc3cc(Cl)ccc3[nH]2)[C@H](NC(=O)c2nc3c(s2)CN(C)CC3)C1 (relative stereo) (as salt: hydrochloride) [Example 130, Ethyl (3R*,4S*)-4-{[(5-chloroindol-2-yl)carbonyl]amino}-3-{[(5-methyl-4,5,6,7-tetrahydrothiazolo[5,4-c]pyridin-2-yl)carbonyl]amino}piperidine-1-carboxylate hydrochloride] |  | 215 to 225 °C (dec.)
CN1CCc2nc(C(=O)N[C@@H]3CN(C(=O)C4CC4)CC[C@@H]3NC(=O)c3cc4cc(Cl)ccc4[nH]3)sc2C1 (relative stereo) (as salt: hydrochloride) [Example 138, N-[(3R*,4S*)-4-{[(5-Chloroindol-2-yl)carbonyl]amino}-1-(cyclopropylcarbonyl)piperidin-3-yl]-5-methyl-4,5,6,7-tetrahydrothiazolo[5,4-c]pyridine-2-carboxamide hydrochloride] |  | 280 to 286 °C (dec.)
CN1CCc2nc(C(=O)N[C@@H]3CN(C(=O)C4CCCC4)CC[C@@H]3NC(=O)c3cc4cc(Cl)ccc4[nH]3)sc2C1 (relative stereo) (as salt: hydrochloride) |  | 254 to 260 °C (dec.)
COCCN1CC[C@H](NC(=O)c2cc3cc(Cl)ccc3[nH]2)[C@H](NC(=O)c2nc3c(s2)CN(C)CC3)C1 (relative stereo) (as salt: hydrochloride) |  | 238 to 242 °C (dec.)
CN1CCc2nc(C(=O)N[C@@H]3CN(C(=O)C(C)(C)CO)CC[C@@H]3NC(=O)c3cc4cc(Cl)ccc4[nH]3)sc2C1 (relative stereo) [Example 146, N-[(3R*,4S*)-4-{[(5-chloroindol-2-yl)carbonyl]amino}-1-(3-hydroxy-2,2-dimethylpropanoyl)piperidin-3-yl)-5-methyl-4,5,6,7-tetrahydrothiazolo[5,4-c]pyridine-2-carboxamide] |  | 220 °C (dec.)
